According to patent US20250230151A1, “COMPOUNDS FOR CANCERS DRIVEN BY BRAF MUTATION” (THE BOARD OF TRUSTEES OF THE UNIVERSITY OF ILLINOIS, priority 2021, published 2025):
Read-outs that look alike come from different tables or passages of the source.

Assays:
[1] = Pharmacokinetics in CD-1 mice, serum by LC-MS/MS; assay type: in vivo, mouse
[2] = system: V600EBRAF melanoma cell lines; experiment: Cell viability, panel of V600E BRAF melanoma cell lines; assay type: cell-based; conditions: range over the panel; read-out: IC50 values against a panel of V600EBRAF melanoma cell lines
Protocol: Cell Culture and reagents. All cell lines were grown in a 37° C., 5% CO2, humidified environment, in media containing 1% penicillin/streptomycin. Cell culture conditions are as follows: MDCK cells transfected with MDR1 (or ABCB1) were obtained from the Netherlands Cancer Institute (Amsterdam, The Netherlands) and maintained in DMEM with 10% fetal bovine serum (FBS, Gemini). Traditional cell lines A375, CHL-1, B16F10, and U118MG were grown in DMEM with 10% FBS, SK-MEL-28, U87 and T98G in EMEM with 10% FBS, AM-38 in EMEM with 20% HI-FBS (Gibco), HT29 in McCoy's 5A with 10% FBS, HCT116 in RPMI with 10% FBS. Compounds were dissolved in DMSO (1% final concentration, Sigma-Aldrich) for cell culture studies.
Cell viability assays. Cells were harvested, seeded in a 96-well plate and allowed to adhere overnight. Compound was added to each well in DMSO (1% final concentration). Cells were incubated for 72 hours before viability was assessed by the Alamar Blue Assay. Raptinal ([…]) was used as a dead control.

[3] = system: melanoma brain metastatic lesions; conditions: combined with trametinib, clinical trials; cited from earlier work
[4] = biological target: T1, P-gp (Homo sapiens, UniProt P08183); conditions: background statement on dabrafenib; cited from earlier work
T1 construct: host or cells: MDCK (MDR1-MDCK)
T1 sequence (P08183 whole entry): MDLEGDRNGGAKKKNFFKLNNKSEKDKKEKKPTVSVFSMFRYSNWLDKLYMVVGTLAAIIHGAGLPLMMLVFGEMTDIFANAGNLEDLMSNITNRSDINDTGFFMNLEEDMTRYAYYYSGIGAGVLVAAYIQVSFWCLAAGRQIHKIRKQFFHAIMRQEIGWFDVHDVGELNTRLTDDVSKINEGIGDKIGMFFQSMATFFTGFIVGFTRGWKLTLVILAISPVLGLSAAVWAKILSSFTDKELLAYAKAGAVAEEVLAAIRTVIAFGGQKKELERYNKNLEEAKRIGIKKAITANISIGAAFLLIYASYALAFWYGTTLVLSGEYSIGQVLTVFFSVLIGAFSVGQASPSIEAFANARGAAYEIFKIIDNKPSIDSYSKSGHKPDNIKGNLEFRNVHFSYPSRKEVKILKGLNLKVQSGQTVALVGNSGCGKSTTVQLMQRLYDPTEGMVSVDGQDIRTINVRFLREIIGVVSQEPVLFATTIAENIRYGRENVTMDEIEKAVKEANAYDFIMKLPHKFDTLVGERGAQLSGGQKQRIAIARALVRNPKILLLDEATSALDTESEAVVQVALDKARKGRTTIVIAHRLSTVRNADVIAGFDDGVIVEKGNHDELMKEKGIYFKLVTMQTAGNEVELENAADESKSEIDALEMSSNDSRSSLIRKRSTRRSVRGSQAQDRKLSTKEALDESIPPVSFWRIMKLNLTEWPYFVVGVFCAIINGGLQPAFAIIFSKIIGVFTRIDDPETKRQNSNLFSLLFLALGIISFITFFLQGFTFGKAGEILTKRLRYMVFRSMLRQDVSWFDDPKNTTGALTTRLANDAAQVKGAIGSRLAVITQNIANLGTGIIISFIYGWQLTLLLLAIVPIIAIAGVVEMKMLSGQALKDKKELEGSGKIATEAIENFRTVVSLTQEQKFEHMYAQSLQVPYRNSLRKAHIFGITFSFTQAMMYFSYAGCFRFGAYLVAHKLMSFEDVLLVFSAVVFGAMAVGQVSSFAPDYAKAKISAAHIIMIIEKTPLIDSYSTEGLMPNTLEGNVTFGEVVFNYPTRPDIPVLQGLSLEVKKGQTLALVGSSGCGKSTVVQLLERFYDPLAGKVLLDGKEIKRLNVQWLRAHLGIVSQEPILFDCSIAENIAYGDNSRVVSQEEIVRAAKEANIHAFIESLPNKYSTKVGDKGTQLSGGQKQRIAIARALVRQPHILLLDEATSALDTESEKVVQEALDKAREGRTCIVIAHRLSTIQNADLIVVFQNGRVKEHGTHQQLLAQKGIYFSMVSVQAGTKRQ

[5] = 20 mg/kg IP, CD-1 mice, one-compartment model, listed as 261
[6] = 20 mg/kg IP, CD-1 mice, one-compartment model, listed as everafenib
[7] = CD-1, mouse, serum, intraperitoneal, 20 mg/kg IP, read-out: [Drug] serum concentration
[8] = CD-1, mouse, serum, 25 mg/kg IV, read-out: [Drug] serum concentration

Structure (SMILES): CCCS(=O)(=O)Nc1cc(Cl)cc(-c2nc(C(C)(C)C)sc2-c2ccnc(N)n2)c1F [6-261, N-(3-(5-(2-aminopyrimidin-4-yl)-2-(tert-butyl)thiazol-4-yl)-5-chloro-2-fluorophenyl)propane-1-sulfonamide]
- AUC [1, 5]: 503964.63 ng·min/mL
- CL [1, 5]: 39.69 mL/min/kg
- Cmax [1, 5]: 9364.7721 ng/mL
- T1/2 [1, 5]: 37.3 min
- Vss [1, 5]: 2.6929321 L/kg
- CL [1, 6]: 39.7 mL/min/kg
- Vss [1, 6]: 2.6929 L/kg
- concentration at 0 min ([1]; CD-1, mouse, serum, intraperitoneal, 20 mg/kg IP, 0 min, read-out: [Drug] serum concentration): 0 nM
- concentration at 15 min [1, 7]: 12.9 ± 0.557 µM
- concentration at 30 min ([1]; CD-1, mouse, serum, intraperitoneal, 20 mg/kg IP, 30 min, read-out: [Drug] serum concentration): 9.46 ± 0.621 µM
- concentration at 45 min ([1]; CD-1, mouse, serum, intraperitoneal, 20 mg/kg IP, 45 min, read-out: [Drug] serum concentration): 6.7 ± 0.122 µM
- concentration at 60 min [1, 7]: 5.59 ± 0.167 µM
- concentration at 120 min ([1]; CD-1, mouse, serum, intraperitoneal, 20 mg/kg IP, 120 min, read-out: [Drug] serum concentration): 2.55 ± 0.194 µM
- concentration at 240 min ([1]; CD-1, mouse, serum, intraperitoneal, 20 mg/kg IP, 240 min, read-out: [Drug] serum concentration): 0.581 ± 0.118 µM
- concentration at 480 min ([1]; CD-1, mouse, serum, intraperitoneal, 20 mg/kg IP, 480 min, read-out: [Drug] serum concentration): 0.014 ± 0.00207 µM
- concentration at 960 min ([1]; CD-1, mouse, serum, intraperitoneal, 20 mg/kg IP, 960 min, read-out: [Drug] serum concentration): 0 nM
- half-life ([1]; CD-1, mouse, serum, ip, 20 mg/kg, 20 mg/kg IP, CD-1 mice, one-compartment model): 37.3 min
- AUC ([1]; CD-1, mouse, serum, ip, 20 mg/kg, 20 mg/kg IP, CD-1 mice, one-compartment model, read-out: AUC (converted)): 504000 ng·min/mL
- Cmax ([1]; CD-1, mouse, serum, ip, 20 mg/kg, 20 mg/kg IP, CD-1 mice, one-compartment model, read-out: Cmax): 9360 ng/mL
- concentration at 15 min [1, 8]: 16.4 ± 0.719 µM
- concentration at 60 min [1, 8]: 6.56 ± 0.29 µM
- IC50 [2]: 2 to 10 nM

Structure (SMILES): CC(C)(C)c1nc(-c2cccc(NS(=O)(=O)c3c(F)cccc3F)c2F)c(-c2ccnc(N)n2)s1 [Dabrafenib, reference compound]
- duration of intracranial response [3]: 6.5 months
- efflux ratio (recognized by P-gp) [4]: 11.4-18.3
